Source: ChEMBL document CHEMBL1201862, “PubChem BioAssay data set” (2004)
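A five-concentration, 48-hour dose response in 96-well plates underlies each endpoint, interpolated linearly between surrounding concentrations. GI50 = concentration required for 50% inhibition of growth.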 Active and inactive are the calls of the source. Rule as the data show it: active = GI50 up to about 1.1 µM and inactive = higher.

Experiments:
Assay in all cases: NCI tumour cell line growth inhibition, 48 h
BT-549 = test system: BT-549
EKVX = test system: EKVX
HCT-15 = test system: HCT-15
HT-29 = test system: HT-29
Hs-578T = test system: Hs-578T
M14 = test system: M14
MCF7 = test system: MCF7
MDA-MB-435 = test system: MDA-MB-435
MDA-N = test system: MDA-N
Malme-3M = test system: Malme-3M
NCI-H226 = test system: NCI-H226
NCI-H23 = test system: NCI-H23
NCI-H460 = test system: NCI-H460
NCI-H522 = test system: NCI-H522
NCI/ADR-RES = test system: NCI/ADR-RES
OVCAR-4 = test system: OVCAR-4
PC-3 = test system: PC-3
RPMI-8226 = test system: RPMI-8226
RXF 393 = test system: RXF 393
SK-MEL-28 = test system: SK-MEL-28

Structure (SMILES)	GI50 (BT-549)	GI50 (EKVX)	GI50 (HCT-15) [µM]	GI50 (HT-29)	GI50 (Hs-578T)	GI50 (M14)	GI50 (MCF7)	GI50 (MDA-MB-435)	GI50 (MDA-N)	GI50 (Malme-3M)	GI50 (NCI-H226)	GI50 (NCI-H23)	GI50 (NCI-H460)	GI50 (NCI-H522)	GI50 (NCI/ADR-RES)	GI50 (OVCAR-4)	GI50 (PC-3)	GI50 (RPMI-8226)	GI50 (RXF 393)	GI50 (SK-MEL-28)
C(=N/c1ccccc1C1SCCCS1)/c1ccccc1	> 100 µM (inactive)	> 100 µM (inactive)	> 100	> 100 µM (inactive)	> 100 µM (inactive)	> 100 µM (inactive)	> 100 µM (inactive)	> 100 µM (inactive)	> 100 µM (inactive)	> 100 µM (inactive)	> 100 µM (inactive)	> 100 µM (inactive)	> 100 µM (inactive)	> 100 µM (inactive)	> 100 µM (inactive)	> 100 µM (inactive)	> 100 µM (inactive)	> 100 µM (inactive)	> 100 µM (inactive)	> 100 µM (inactive)
CCC[C@H](N[S+]([O-])c1ccc(C)cc1)C(C(=O)OCC)=C(c1ccccc1)c1ccccc1 (stereo not given in full)	21.2 µM (inactive)	18.2 µM (inactive)	25.2	13.9 µM (inactive)	25.8 µM (inactive)	22 µM (inactive)	16.6 µM (inactive)	17.1 µM (inactive)	20.8 µM (inactive)	17.4 µM (inactive)	26.1 µM (inactive)	27.1 µM (inactive)	17 µM (inactive)	17.3 µM (inactive)	27.7 µM (inactive)	16.7 µM (inactive)	15 µM (inactive)	18.7 µM (inactive)	14.5 µM (inactive)	27.6 µM (inactive)
COC(=O)C(COC(=O)/C=C/c1ccc(OC(C)=O)c(OC(C)=O)c1)OC(=O)/C=C/c1ccc(OC(C)=O)c(OC(C)=O)c1 (stereo not given)	15.1 µM (inactive)	17.5 µM (inactive)	5.38	6.9 µM (inactive)	13.7 µM (inactive)	7.8 µM (inactive)	6.61 µM (inactive)	11 µM (inactive)	9.73 µM (inactive)	15.5 µM (inactive)	24.5 µM (inactive)	12 µM (inactive)	18.7 µM (inactive)	5.18 µM (inactive)	20 µM (inactive)	15.3 µM (inactive)	11.1 µM (inactive)	11.6 µM (inactive)	12.3 µM (inactive)	15.5 µM (inactive)
